Laboratory results as given in patent US8530404B2, “Compounds and methods for treatment of cancer” (FibroGen, Inc., priority 2005, dated 2013).

Columns and labels:
BNIP3L gene expression = BNIP3L gene expression in Kelly neuroblastoma cells (Affymetrix microarray); type: cell-based; conditions: 20 μM, 6 hours, vs 0.5% DMSO control
Method: (§1) To identify compounds useful in the methods of the present invention, the following studies were performed. The effect of compounds of the present invention on expression of various genes associated with anti-tumor activity (e.g., genes having anti-proliferative activity, genes having pro-apoptotic activity, genes having anti-tumor activity, etc.). In these experiments, the effect of compounds on BNIP3, BNIP3L, NDRG1, CDKN1C, and REDD1/RTP801 gene expression in various types of cultured tumor cells line was examined, including Hep3B cells (human hepatocellular carcinoma), Kelly neuroblastoma cells, and MCF7 cells (human breast cancer)
(§2) The effects of various compounds of the present invention on the expression of genes associated with tumor growth and progression were examined in Kelly neuroblastoma cells as follows. Kelly neuroblastoma cells were grown in RPMI media. […]
(§3) RNA was isolated from the Kelly neuroblastoma cells using a commercial kit and used for the preparation of cDNA. BNIP3, CDKN1C, and 18S RNA levels were measured using commercial kits (18S, Applied Biosystems cat#4319413E); BNIP3, Applied Biosystems cat#HS00969293 MH). […] Kelly cell NDRG1 and BNIP3L mRNA levels were measured by Affymetrix microarray in a separate study. […]

NDRG1 gene expression = NDRG1 gene expression in Kelly neuroblastoma cells (Affymetrix microarray); type: cell-based; conditions: 20 μM, 6 hours, vs 0.5% DMSO control
Method: as §1, §2, §3

[1] = test system: REDD1/RTP801 gene expression; test: REDD1/RTP801 gene expression in Kelly neuroblastoma cells; type: cell-based; conditions: 20 μM, vs DMSO control
Method: as §1, §2, §3

[2] = test system: MDA-MB-435-GFP breast tumors; test: Orthotopically implanted human MDA-MB-435-GFP breast tumor mouse xenograft (Example 5); type: in vivo; conditions: 33 days of treatment; FIG. 1; dose not stated
Method: The experiment was conducted essentially as described above in Example 3, except that the tumors of GFP-transfected H-460 cells were replaced with MDA-MB-435-GFP breast tumors, with surgical orthotopic implantation directly into breast tissue of female CD-1 nude animals. The number of animals in each group was increased to 15. […] (See, e.g., Ross et al (2000) Nat Genet 24:227-235 and Ellison et al. Mol Pathol. (2002) 55:294-299.)
In the present MDA-MB-435-GFP breast cancer orthotopic study, administration of compound A was initiated 21 days after tumor fragment implantation to the mammary fat pad of female nude mice, at time at which the volume of primary tumors reached ˜150 mm^3. Taxotere, a positive chemotherapeutic agent control, was administered i.v. once weekly (15 mg/kg). After mean tumor volume in the vehicle control group exceeded 1 cm^3, animals were sacrificed (33 days of treatment) and primary tumors were excised from all animals and weighed.

HCT116-GFP colon tumors = test: Orthotopically implanted human HCT116-GFP colon tumor mouse xenograft (Example 4); type: in vivo
Method: Procedures were carried out as described above for Example 3, except that the tumors of GFP-transfected H-460 cells were replaced with HCT116-GFP colon tumors, and surgical orthotopic implantation was directly into colon tissue.
The HCT116 tumor model used here is a well-characterized representative colon xenograft model. The isolation of the human HCT116 tumor cell line from a human colon carcinoma has been described. (Brattain et al (1981) Cancer Res 41:1751-1756.) To aid in the detection of tumors and metastases, HCT116 cells were transduced with genes directing the expression of fluorescent proteins (e.g., HCT116-GFP). The use of fluorescent HCT116-derived tumors in similar studies has been described previously. (Ross et al (2000) Nat Genet 24:227-235.)
HCT116-GFP tumor fragments harvested from the stock animals were transplanted into animals by surgical orthotopic implantation (SOI) as follows. The animals were anesthetized with isoflurane and the surgical area was sterilized using iodine and alcohol. After proper exposure of the colon following a lower midline abdominal incision, the serosa of the colon was removed and two pieces of 1 mm^3 tumor fragments per mouse were implanted. An 8-0 surgical suture was used to penetrate these small tumor pieces and suture them on the wall of the intestine. The intestine was then returned to the abdominal cavity. The incision in the abdominal wall was closed with a 6-0 surgical suture in one layer. The animals were kept under isoflurane anesthesia during surgery. All procedures of the operation described above were performed under a 7× magnification microscope (Olympus). Animals were kept in a barrier facility under HEPA filtration.
Administration of Compound A or 5-FU (5-Flurouracil) to the animals was initiated three days following tumor transplantation. 5-FU, a chemotherapeutic agent used as a positive control, was administered by intraperitoneal injection (60 mg/kg) at four day intervals for a total of three doses. Compound A was administered at either 20 mg/kg or 60 mg/kg three times per week. Tumor volumes were measured at day 15, day 22, and day 29.

Question: How did the “fold-increase in BNIP3L mRNA expression” value (BNIP3L gene expression) turn out when COc1ccc(Oc2ccc3c(O)c(C(=O)NCC(=O)O)ncc3c2)cc1 [Compound C, {[4-Hydroxy-7-(4-methoxy-phenoxy)-isoquinoline-3-carbonyl]-amino}-acetic acid] was run?
Answer: 5.9 fold

Question: What about the “fold-increase in NDRG1 mRNA expression” value (NDRG1 gene expression) of the same molecule?
Answer: 7.3 fold

Question: What about the “fold-increase in REDD1/RTP801 mRNA expression” value [1] of the same molecule?
Answer: 3.6 fold

Question: What does the source list for O=C(O)CNC(=O)c1nc(Cl)c2ccccc2c1O [Compound A, [(1-Chloro-4-hydroxy-isoquinoline-3-carbonyl)-amino]-acetic acid]?
Answer: reduction of mean tumor volumes compared to vehicle control [2]: approximately 20%; mean tumor volume (calipers, mean +/- SD) (HCT116-GFP colon tumors; Treatment Day 15, 20 mg/kg three times per week): 39 +/− 27; mean tumor volume (calipers, mean +/- SD) (HCT116-GFP colon tumors; Treatment Day 15, 60 mg/kg three times per week): 24 +/− 23; mean tumor volume (calipers, mean +/- SD) (HCT116-GFP colon tumors; Treatment Day 22, 20 mg/kg three times per week): 67 +/− 49; mean tumor volume (calipers, mean +/- SD) (HCT116-GFP colon tumors; Treatment Day 22, 60 mg/kg three times per week): 45 +/− 38; mean tumor volume (calipers, mean +/- SD) (HCT116-GFP colon tumors; Treatment Day 29, 20 mg/kg three times per week): 197 +/− 158; mean tumor volume (calipers, mean +/- SD) (HCT116-GFP colon tumors; Treatment Day 29, 60 mg/kg three times per week): 152 +/− 125
